Reference: patent publication US5663207A, “Gem-dichlorocyclopropanes as antitumor agents” (priority 1995, dated 1997)
Entries after “also recorded” stand apart in the source; their conditions may differ. Read-outs that look alike come from different tables or passages of the source.

Key:
[1] = system: MCF-7 human breast cancer cells; experiment: In vitro MCF-7 human breast cancer cell growth inhibition assay; format: cell-based; conditions: for inhibition at 1 µM: Homo sapiens
From the text: The biological evaluation of the test compounds consisted of the in vitro rat cytosolic estradiol receptor binding assay, the in vivo immature mouse uterotrophic (estrogenic) and antiuterotrophic (antiestrogenic) assays, and the in vitro suppression of the proliferation of the ER positive MCF-7 human breast cancer cell line. Estradiol (pure agonist), TAM (agonist in mice and antagonist in MCF-7), MER 25 (pure antagonist) and Analog II (antagonist in mice) were used in the assay as standards.
MCF-7 (estrogen-receptor positive) human breast cancer cells (obtained from the Michigan Cancer Foundation, Detroit, Mich.) were grown at 37° C. in 75 cm^2 tissue culture (T-75) flasks, as monolayer cultures in RPMI 1640 phenol red-free media supplemented with 2 mM L-glutamine, gentamicin (50 μg/mL), penicillin (100 units/mL), streptomycin (100 μg/mL ) and calf serum (5%). Cultures were grown in an incubator 37° C. in a humid 5% CO2 atmosphere, and fed on alternate days. Expotential growth was maintained by subculturing at eight day intervals when the cells per T-75 flask reached 10 to 12×10^6 cells. Cells were trypsinized, washed and plated in multiwell plates at a density of 5×10^4 cells/well in 3 mL of RPMI 1640 media. The cells were allowed to attach and were in logarithmic growth when the test compounds were added. The test compounds (10^-6 M) in the presence or absence of a 10-fold lower dose of estradiol were dissolved in a polyethylene glycol 400: ethanol (55:45) mixture and added in the culture media in duplicate. Control samples received vehicle alone at the same concentration used in the treatment groups. The final concentration of the vehicle mixture was 0.1% of the incubation media. Cell growth was measured on alternate days using the hemocytometric trypan blue exclusion method. Percent inhibition of MCF-7 cells was calculated as the ratio of the control mean cell count per well minus the treatment group mean cell count per well to the control mean cell count per well, multiplied by 100.
^b % MCF7 inhibition was calculated as follows: […]
Thirteen compounds, Analog II, TAM, and MER 25 were tested for their antiproliferative activity in the MCF-7 human breast cancer cell line (Table II). Compounds were tested at a concentration of 10^-6 M in the presence or absence of 10^-7 M estradiol to assess their ability to alter the growth of the calls (Table II). The 10^-6 M concentration was selected since it was reported that the inhibition of the MCF-7 cells by antiestrogens and TAM occurred either at that concentration or less, and were both selective and estrogen receptor specific. Concentrations of antiestrogens greater than 5×10^-6 M were reported to have nonspecific cytotoxic effects (BRIAND, P. AND […], A. E. (1984), "Effect of estrogen and antiestrogen on the human breast cancer cell line MCF-7 adapted to growth at low serum concentration", Cancer Research, 44, 1114).

[2] = Stability observed during isolation and storage; format: physicochemical; conditions: on concentration, drying or storage
Description: The structures of all compounds were supported by their proton NMR spectra, which were measured on either a Varian EM-360A or XL-300 spectrometer. The spectra are reported in parts per million in CDCl3 unless otherwise noted, with tetramethysilane as the internal standard. Infrared spectra were obtained from KBr pellets on a Beckman Acculab 1 spectrometer and were consistent with the assigned structures. Silica gel (for example, obtained commercially from J. T. Baker) of approximately 40 μm diameter was used for flash chromatography (STILL, W. C., KAHN, M. AND MITRA, A. (1978), "Rapid chromatographic technique for preparative separations with moderate resolutions", Journal of Organic Chemistry, 43, 2923), which was performed at 5-10 psi. Petroleum ether was of bp 30°-60° C. When necessary, solvents or reagents were dried by appropriate methods. Evaporations were carried out in vacuo on a rotary evaporator or under a stream of dry N2. Melting points were taken on a Thomas-Hoover capillary melting point apparatus and are uncorrected. Reaction progress and product purity were monitored by analytical TLC on strips of Eastman Kodak plastic-backed SiO2 60 F254 or Al2 O3 F254. Developed strips were viewed under light of 254 and 365 nm wavelengths. Elemental analyses were done by Midwest Microlab Ltd., Indianapolis, IN. Acceptable elemental results are denoted in Table I by the formula, followed by the elements analyzed. Melting points and yields of all compounds were based on pure samples unless otherwise noted, are listed in Table I. Para-Bromoanisole, p-methoxydeoxybenzoin, anisole, p-methoxybenzaldehyde, and 2,3-bis-(p-methoxyphenyl)-acrylic acid and trans-p-methoxystilbene (the olefin), were purchased from Aldrich & Co. The cyclopropanes 1,1-dichloro-cis-2-(p-hydroxyphenyl)-3-phenylcyclopropane (9), and its trans isomer 1,1-dichloro-trans-2-(p-Hydroxyphenyl)-3phenylcyclopropane (17) were prepared from Compounds 8 & 16, respectively. […] Tamoxifen was obtained from Stuart Pharmaceuticals, Division of ICI Americas, Inc., Wilmington, Del. 19897. MER 25 was obtained from the Merrell Dow Research Institute, Division of Merrell Dow Pharmaceuticals, Inc., Cincinnati, Ohio. Protein Assay Reagent, Pierce Chemical Co., Rockford, Ill. 61105. Diethylstilbestrol, β-estradiol, EDTA, DL-dithiothreitol, Sodium molybdate, and Tris (hydroxymethyl) aminomethane hydrochloride were purchased from Sigma Chemical Co., St. Louis, Mo. 63178.
Essentially, the intermediate olefin acids (Compounds 6 & 12) were obtained from a mixed Perkin and Knoevenagel-type condensation involving the reaction of p-methoxyaldehyde (Compound 4) with phenylacetic acid (Compound 5), or p-methoxyphenylacetic acid (Compound 11) in triethylamine and acetic anhydride. To prepare cis-p-methoxystilbene (Compound 7) or bis-(p-methoxy)-cis-stilbene (Compound 13). Decarboxylation of 6 & 12 with quinoline (prevents isomerizations; KLEIN, J. AND MEYER, A. Y. (1964), "The decarboxylation of α-cyano-and α-carboxycinnamic acids", Journal of Organic Chemistry, 29, 1038), and copper chromite at elevated temperature provided 7 & 13. High temperature during distillation caused 8% isomerization to the trans-isomer (15), which was isolated by column chromatography. Dichlorocarbene generation used the catalytic phase transfer method (21, 37) (used extensively in our laboratory) of 50% aqueous solution of NaOH, CHCl3 and benzyltriethylammonium chloride (TEBA) as the anion transfer agent. […]

Oc1ccc(C2(c3ccc(O)cc3)C(Cl)(Cl)C23CCCCC3)cc1 [Compound 30, 1,1-Dichloro-2,2-bis-(p-hydroxyphenyl)-spiro[2.5]octane]
effect on MCF-7 cell growth (in words) ([1]; 10^-6 M): active inhibitors of cell growth
reversal of growth inhibition by estradiol (in words) ([1]; 10^-7 M estradiol): reversed by 10^-7 M estradiol
inhibition at 1 µM ([1]; MCF7, read-out: MCF-7 Inhibition): 21.3%
effect on estradiol-induced cell growth (in words) ([1]; with 10^-7 M estradiol): enhanced estradiol-induced cell growth above the control
stability (in words) [2]: gradually turned to light-orange; also recorded: underwent a gradual color change

CC(=O)Oc1ccc([C@H]2[C@@H](c3ccccc3)C2(Cl)Cl)cc1 (relative stereo) [Compound 10, 1,1-Dichloro-cis-2-(p-acetoxyphenyl)-3-phenylcyclopropane]
effect on MCF-7 cell growth (in words) ([1]; 10^-6 M): inhibited cell growth
inhibition at 1 µM ([1]; MCF7, 10^-6 M, versus control mean cell count, read-out: MCF-7 Inhibition): 32%
stability (in words) [2]: stable light-yellow oil at 0 °C
